{
  "source": "patent US4486419A",
  "about": "“5,2',3',4',4\",6\"-Hexadeoxykanamycin and its 1-N-acylated derivative” (Zaidan Hojin Biseibutsu Kagaku Kenkyu Kai, priority 1982, dated 1984)",
  "type_in_all_cases": "cell-based",
  "key": {"[1]": {"tested_on": "Staphylococcus epidermidis 109", "conditions": "nutrient agar, 37° C., 18 hours"}, "[2]": {"tested_on": "Pseudomonas aeruginosa K-Ps102"}, "[3]": {"tested_on": "Pseudomonas aeruginosa No. 12", "conditions": "nutrient agar, 37° C., 18 hours"}, "[4]": {"tested_on": "Escherichia coli K-12 ML 1630", "conditions": "K12ML1630, nutrient agar, 37° C., 18 hours"}, "[5]": {"tested_on": "Pseudomonas maltophilia GN907", "conditions": "Stenotrophomonas maltophilia, nutrient agar, 37° C., 18 hours"}, "[6]": {"tested_on": "Escherichia coli K-12 R 388", "conditions": "K12R388, 18 h"}, "[7]": {"tested_on": "Pseudomonas aeruginosa H11", "conditions": "nutrient agar, 37° C., 18 hours"}, "[8]": {"tested_on": "Pseudomonas aeruginosa ROS134/PU21", "conditions": "ROS134/PU21, 18 h"}, "[9]": {"tested_on": "Escherichia coli K-12 C 600R135", "test": "microbe, parasite or virus in culture", "conditions": "K12C600R135, 18 h"}, "[10]": {"tested_on": "Pseudomonas aeruginosa H9"}, "[11]": {"tested_on": "Klebsiella pneumoniae PCI 602", "conditions": "PCI602, nutrient agar, 37° C., 18 hours"}, "[12]": {"tested_on": "Staphylococcus aureus Smith", "conditions": "nutrient agar, 37° C., 18 hours"}, "[13]": {"tested_on": "Pseudomonas aeruginosa PST1", "conditions": "nutrient agar, 37° C., 18 hours"}, "[14]": {"tested_on": "kanamycin-resistant bacteria", "test": "antibacterial activity against kanamycin-resistant bacteria (in words)", "conditions": "even with the kanamycin-resistant bacteria"}, "[15]": {"tested_on": "bacterial strains", "test": "antibacterial activity (in words)"}},
  "note": "Where two headings read alike, the source gives them in different places.",
  "data": [
    {"smiles": "NCC[C@H](O)C(=O)N[C@@H]1C[C@H](N)[C@@H](O[C@H]2O[C@H](CN)[C@@H](O)[C@H](O)[C@H]2O)[C@H](O)[C@H]1O[C@H]1O[C@H](CO)[C@@H](O)[C@H](N)[C@H]1O", "note": "[Amikacin, 1-N-[(S)-4-amino-2-hydroxybutyryl]kanamycin A, reference compound]", "values": [
      {"measurement": "MIC", "setting": "[1]", "value": 3.13, "unit": "µg/mL"},
      {"measurement": "MIC", "setting": "[2]; KPS102, nutrient agar, 37° C., 18 hours, read-out: MIC", "value": 6.25, "unit": "µg/mL"},
      {"measurement": "MIC", "setting": "[3]", "value": 3.13, "unit": "µg/mL"},
      {"measurement": "MIC", "setting": "[4]", "value": 3.13, "unit": "µg/mL"},
      {"measurement": "MIC", "setting": "[5]", "value": "> 100", "unit": "µg/mL"},
      {"measurement": "MIC", "setting": "[6]", "value": 0.39, "unit": "µg/mL"},
      {"measurement": "MIC", "setting": "[7]", "value": 12.5, "unit": "µg/mL"},
      {"measurement": "MIC", "setting": "[8]", "value": 100, "unit": "µg/mL"},
      {"measurement": "MIC", "setting": "[9]", "value": 0.78, "unit": "µg/mL"},
      {"measurement": "MIC", "setting": "[10]; H9, nutrient agar, 37° C., 18 hours, read-out: MIC", "value": 6.25, "unit": "µg/mL"},
      {"measurement": "MIC", "setting": "[11]", "value": 0.78, "unit": "µg/mL"},
      {"measurement": "MIC", "setting": "[12]", "value": 0.39, "unit": "µg/mL"},
      {"measurement": "MIC", "setting": "[13]", "value": 12.5, "unit": "µg/mL"}
    ]},
    {"smiles": "C[C@@H]1C[C@H](N)[C@@H](O)[C@@H](O[C@@H]2C[C@H](O[C@@H]3CCC[C@@H](CN)O3)[C@@H](N)C[C@H]2NC(=O)[C@@H](O)CCN)O1", "note": "[Hexadeoxyamikacin, 1-N-[(S)-4-amino-2-hydroxybutyryl]-5,2',3',4',4\",6\"-hexadeoxykanamycin]", "values": [
      {"measurement": "MIC", "setting": "[1]", "value": 1.56, "unit": "µg/mL"},
      {"measurement": "MIC", "setting": "[2]; KPS102, 18 h", "value": 50, "unit": "µg/mL"},
      {"measurement": "MIC", "setting": "[3]", "value": 25, "unit": "µg/mL"},
      {"measurement": "MIC", "setting": "[4]", "value": 3.13, "unit": "µg/mL"},
      {"measurement": "MIC", "setting": "[5]", "value": "> 100", "unit": "µg/mL"},
      {"measurement": "MIC", "setting": "[6]", "value": 0.78, "unit": "µg/mL"},
      {"measurement": "antibacterial activity compared with amikacin", "setting": "[14]", "value": "antibacterial activity as high as that of amikacin"},
      {"measurement": "MIC", "setting": "[7]", "value": 100, "unit": "µg/mL"},
      {"measurement": "MIC", "setting": "[8]", "value": "> 100", "unit": "µg/mL"},
      {"measurement": "MIC", "setting": "[9]", "value": 1.56, "unit": "µg/mL"},
      {"measurement": "MIC", "setting": "[10]; H9, 18 h", "value": 50, "unit": "µg/mL"},
      {"measurement": "MIC", "setting": "[11]", "value": 1.56, "unit": "µg/mL"},
      {"measurement": "MIC", "setting": "[12]", "value": 1.56, "unit": "µg/mL"},
      {"measurement": "MIC", "setting": "[13]", "value": 50, "unit": "µg/mL"}
    ]},
    {"smiles": "C[C@@H]1C[C@H](N)[C@@H](O)[C@@H](O[C@@H]2C[C@H](O[C@@H]3CCC[C@@H](CN)O3)[C@@H](N)C[C@H]2N)O1", "note": "[Hexadeoxykanamycin, 5,2',3',4',4\",6\"-hexadeoxykanamycin]", "values": [
      {"measurement": "MIC", "setting": "[1]", "value": 3.13, "unit": "µg/mL"},
      {"measurement": "MIC", "setting": "[2]; KPS102, 18 h", "value": "> 100", "unit": "µg/mL"},
      {"measurement": "MIC", "setting": "[3]", "value": 50, "unit": "µg/mL"},
      {"measurement": "MIC", "setting": "[4]", "value": 25, "unit": "µg/mL"},
      {"measurement": "MIC", "setting": "[5]", "value": "> 100", "unit": "µg/mL"},
      {"measurement": "MIC", "setting": "[6]", "value": 1.56, "unit": "µg/mL"},
      {"measurement": "MIC", "setting": "[7]", "value": "> 100", "unit": "µg/mL"},
      {"measurement": "MIC", "setting": "[8]", "value": "> 100", "unit": "µg/mL"},
      {"measurement": "MIC", "setting": "[9]", "value": 1.56, "unit": "µg/mL"},
      {"measurement": "MIC", "setting": "[10]; H9, 18 h", "value": 100, "unit": "µg/mL"},
      {"measurement": "MIC", "setting": "[11]", "value": 1.56, "unit": "µg/mL"},
      {"measurement": "MIC", "setting": "[12]", "value": 0.78, "unit": "µg/mL"},
      {"measurement": "MIC", "setting": "[13]", "value": "> 100", "unit": "µg/mL"},
      {"measurement": "antibacterial activity", "setting": "[15]", "value": "antibacterial activity as high as that of the parent kanamycin A"}
    ]}
  ]
}
